From patent US9573954B2, “Pyrazolopyrimidine compounds” (University Health Network, priority 2012, dated 2017)

biological target: T1, human TTK (Homo sapiens, UniProt P33981); experiment: TTK inhibition assay (indirect ELISA); type: biochemical; conditions: 16 μM ATP (Sigma cat# A7699); read-out: TTK IC50 Range (denoted with an asterisk)
T1 construct: Active TTK was purchased from Invitrogen as an amino terminal GST fusion of full length human TTK; purchased Invitrogen
T1 sequence (P33981 1-857): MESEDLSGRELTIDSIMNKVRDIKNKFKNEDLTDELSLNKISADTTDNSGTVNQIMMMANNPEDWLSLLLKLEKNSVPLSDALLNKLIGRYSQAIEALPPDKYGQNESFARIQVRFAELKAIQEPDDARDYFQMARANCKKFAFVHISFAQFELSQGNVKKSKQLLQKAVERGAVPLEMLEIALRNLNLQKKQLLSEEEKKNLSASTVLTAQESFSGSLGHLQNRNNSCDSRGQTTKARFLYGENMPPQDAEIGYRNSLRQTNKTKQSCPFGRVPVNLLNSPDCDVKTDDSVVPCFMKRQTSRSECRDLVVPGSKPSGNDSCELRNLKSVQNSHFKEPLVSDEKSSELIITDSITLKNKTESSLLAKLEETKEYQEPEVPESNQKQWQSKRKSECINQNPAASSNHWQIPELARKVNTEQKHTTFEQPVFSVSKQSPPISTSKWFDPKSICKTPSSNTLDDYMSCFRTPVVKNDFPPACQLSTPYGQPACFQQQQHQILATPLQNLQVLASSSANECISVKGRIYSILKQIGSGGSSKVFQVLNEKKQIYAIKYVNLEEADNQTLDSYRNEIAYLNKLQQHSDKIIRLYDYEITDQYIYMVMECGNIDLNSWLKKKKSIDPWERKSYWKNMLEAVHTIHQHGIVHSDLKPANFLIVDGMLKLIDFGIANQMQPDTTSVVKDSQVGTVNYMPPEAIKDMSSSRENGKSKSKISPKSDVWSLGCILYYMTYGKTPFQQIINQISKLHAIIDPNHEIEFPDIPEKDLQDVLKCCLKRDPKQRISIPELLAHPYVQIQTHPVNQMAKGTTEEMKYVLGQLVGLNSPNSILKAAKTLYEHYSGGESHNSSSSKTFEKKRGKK
Protocol: Active TTK was purchased from Invitrogen as an amino terminal GST fusion of full length human TTK.
TTK activity was measured using an indirect ELISA detection system.
Compounds were pre-incubated in the presence of enzyme for 5 minutes prior to addition of ATP and the activity remaining quantified using the above described activity assay. The % Inhibition of a compound was determined using the following formula; % Inhibition=100×(1−(experimental value−background value)/(high activity control−background value)). The IC50 value was determined using a non-linear 4 point logistic curve fit (XLfit4, IDBS) with the formula; (A+(B/(1+((x/C)^D)))), where A=background value, B=range, C=inflection point, D=curve fit parameter.

Question: For `Cc1cc(-c2cnn3c(NCC4CCOCC4)nc(NC4CCCC4)nc23)ccc1NC(=O)C1CC1` [Example C18], which IC50 is on record?
Answer: > 500 nM

Question: Which IC50 does the source give for `COCCNc1nc(Oc2ccccc2)nc2c(-c3ccc(C(=O)NC4CC4)cc3)cnn12` [Example C6] here?
Answer: < 100 nM

Question: Which IC50 does the source give for `CN(c1nc(NCC2CCOCC2)n2ncc(-c3ccc(C(=O)NC4CC4)c(F)c3)c2n1)C1CCCCC1` [Example C15] here?
Answer: < 100 nM

Question: For `Cc1cc(-c2cnn3c(NCC4CCOCC4)nc(Oc4ccccc4)nc23)ccc1NC(=O)C1CC1` [Example C17], which IC50 is on record?
Answer: > 500 nM

Question: For `O=C(NC1CC1)c1ccc(-c2cnn3c(NCCCN4CCOCC4)nc(Oc4ccccc4)nc23)cc1` [Example C1, N-cyclopropyl-4-(4-((3-morpholinopropyl)amino)-2-phenoxypyrazolo[1,5-a][1,3,5]triazin-8-yl)benzamide], which IC50 is on record?
Answer: < 100 nM

Question: `O=C(NC1CC1)c1ccc(-c2cnn3c(NCC4CCOCC4)nc(N4CCCCC4)nc23)cc1Cl` [Example C16] was tested. Which IC50 did it give?
Answer: < 100 nM

Question: For `CC(C)NC(=O)c1ccc(-c2cnn3c(NCC4CCOCC4)nc(Oc4ccccc4)nc23)cc1` [Example C2], which IC50 is on record?
Answer: 100 to 500 nM

same assay, conditions: 100 μM ATP; read-out: TTK IC50 Range

Question: How did the IC50 turn out when `Cc1cc(-c2cnn3c(NCC4CCOCC4)cc(Oc4ccncc4)nc23)ccc1C(=O)NC1CC1` [Example C50] was run?
Answer: > 500 nM

Question: How did the IC50 turn out when `Cc1cc(-c2cnn3c(NCC(C)C)cc(Nc4cccnc4)nc23)ccc1C(=O)NC1CC1` [Example C160] was run?
Answer: < 100 nM

Question: With `Cc1cc(-c2cnn3c(NCCN4CCOCC4)cc(O[C@@H]4CCOC4)nc23)ccc1C(=O)NC1CC1` [Example C137] as the compound, how does the IC50 read?
Answer: < 100 nM

Question: For `Cc1cc(-c2cnn3c(NCC4CCOCC4)cc(NC4COC4)nc23)ccc1C(=O)NC1CC1` [Example C102], which IC50 is on record?
Answer: < 100 nM

Question: Which IC50 does the source give for `Cc1cc(-c2cnn3c(NCC4CCOCC4)cc(N4CCC(O)CC4)nc23)ccc1C(=O)NC1CC1` [Example C67] here?
Answer: < 100 nM

Question: With `Cc1cc(-c2cnn3c(NCC4CCOCC4)cc(N4CC[C@H](CO)C4)nc23)ccc1C(=O)NC1CC1` [Example C166] as the compound, how does the IC50 read?
Answer: < 100 nM

Question: Which IC50 does the source give for `Cc1cc(-c2cnn3c(NCC4CCOCC4)cc(N4CC(O)C4)nc23)ccc1C(=O)NC1CC1` [Example C69] here?
Answer: 100 to 500 nM

Question: With `Cc1cc(-c2cnn3c(NCC4CCOCC4)cc(NC4CCN(C5COC5)CC4)nc23)ccc1C(=O)NC1CC1` [Example C122] as the compound, how does the IC50 read?
Answer: < 100 nM

Question: Which IC50 does the source give for `COCCNc1cc(NC2CCCC2)nc2c(-c3ccc(C(=O)NC4CC4)c(C)c3)cnn12` [Example C80] here?
Answer: < 100 nM

Question: With `Cc1cc(-c2cnn3c(NC[C@@H]4CCCO4)cc(NC4CCOCC4)nc23)ccc1C(=O)NC1CC1` [Example C65] as the compound, how does the IC50 read?
Answer: < 100 nM

Question: With `Cc1cc(-c2cnn3c(NCC4CCOCC4)cc(N4CC5(CC(O)C5)C4)nc23)ccc1C(=O)NC1CC1` [Example C162] as the compound, how does the IC50 read?
Answer: < 100 nM

Question: For `Cc1cc(-c2cnn3c(NCC4CCOCC4)cc(NCc4ccccn4)nc23)ccc1C(=O)NC1CC1` [Example C73], which IC50 is on record?
Answer: < 100 nM

Question: With `Cc1cc(-c2cnn3c(NCCN4CCC(F)(F)CC4)cc(NC4CCCC4)nc23)ccc1C(=O)NC1CC1` [Example C184] as the compound, how does the IC50 read?
Answer: < 100 nM

Question: How did the IC50 turn out when `Cc1cc(-c2cnn3c(NCCN4CCOCC4)cc(Oc4cccc(N5CCOCC5)c4)nc23)ccc1C(=O)NC1CC1` [Example C91] was run?
Answer: < 100 nM

Question: Which IC50 does the source give for `Cc1cc(-c2cnn3c(NCC4CCOCC4)cc(N4CC[C@@H](CO)C4)nc23)ccc1C(=O)NC1CC1` [Example C167] here?
Answer: < 100 nM

Question: With `Cc1cc(-c2cnn3c(NCC4CCOCC4)cc(NC(CO)CO)nc23)ccc1C(=O)NC1CC1` [Example C110] as the compound, how does the IC50 read?
Answer: < 100 nM

Question: With `Cc1cc(-c2cnn3c(NCCN4CCOCC4)cc(NCC4CC4)nc23)ccc1C(=O)NC1CC1` [Example C76] as the compound, how does the IC50 read?
Answer: < 100 nM

Question: For `Cc1cc(-c2cnn3c(NCCN4CCC(O)CC4)cc(NC4CCCC4)nc23)ccc1C(=O)NC1CC1` [Example C168], which IC50 is on record?
Answer: < 100 nM

Question: How did the IC50 turn out when `COC(C)(C)CNc1cc(N[C@H]2CCC[C@H]2O)nc2c(-c3ccc(C(=O)NC4CC4)c(C)c3)cnn12` [Example C129] was run?
Answer: < 100 nM

Question: `COC(C)(C)CNc1cc(N[C@@H](C(C)C)C(C)(C)O)nc2c(-c3ccc(C(=O)NC4CC4)c(C)c3)cnn12` [Example C128] was tested. Which IC50 did it give?
Answer: < 100 nM

Question: For `CC(=O)N1CCN(c2cc(NCC3CCOCC3)n3ncc(-c4ccc(C(=O)NC5CC5)c(C)c4)c3n2)CC1` [Example C84], which IC50 is on record?
Answer: < 100 nM

Question: Which IC50 does the source give for `Cc1cc(-c2cnn3c(NCC4(CO)CCOCC4)cc(NC4CCOCC4)nc23)ccc1C(=O)NC1CC1` [Example C93] here?
Answer: < 100 nM

Question: Which IC50 does the source give for `Cc1cc(-c2cnn3c(NCCN4CCOCC4)cc(Oc4cccc(S(C)(=O)=O)c4)nc23)ccc1C(=O)NC1CC1` [Example C86] here?
Answer: 100 to 500 nM

Question: For `Cc1cc(-c2cnn3c(NCCN4CCOCC4)cc(NCc4cccnc4)nc23)ccc1C(=O)NC1CC1` [Example C75], which IC50 is on record?
Answer: < 100 nM

Question: For `Cc1cc(-c2cnn3c(NCC4CCOCC4)cc(OC4CCN(C5COC5)CC4)nc23)ccc1C(=O)NC1CC1` [Example C115], which IC50 is on record?
Answer: < 100 nM

Question: `Cc1cc(-c2cnn3c(NCCN4CCC(F)(F)CC4)cc(Oc4cnn(C)c4)nc23)ccc1C(=O)NC1CC1` [Example C185] was tested. Which IC50 did it give?
Answer: < 100 nM

Question: For `Cc1cc(-c2cnn3c(NCCCS(C)(=O)=O)cc(NC4CCOCC4)nc23)ccc1C(=O)NC1CC1` [Example C140], which IC50 is on record?
Answer: < 100 nM

Question: For `Cc1cc(-c2cnn3c(NCCN4CCOCC4)cc(NC4CCOCC4)nc23)ccc1C(=O)NC1CC1` [Example C53], which IC50 is on record?
Answer: < 100 nM

Question: With `Cc1cc(-c2cnn3c(NCC(C)C)cc(-c4cccc5ncccc45)nc23)ccc1C(=O)NC1CC1` [Example C154] as the compound, how does the IC50 read?
Answer: 100 to 500 nM

Question: With `Cc1cc(-c2cnn3c(NCCCn4ccnc4)cc(NC4CCCC4)nc23)ccc1C(=O)NC1CC1` [Example C70] as the compound, how does the IC50 read?
Answer: < 100 nM

Question: How did the IC50 turn out when `Cc1cc(-c2cnn3c(NCC4(N(C)C)CCOCC4)cc(Oc4ccccc4)nc23)ccc1C(=O)NC1CC1` [Example C106] was run?
Answer: 100 to 500 nM

Question: How did the IC50 turn out when `CC[C@H](Nc1cc(NCCN2CCOCC2)n2ncc(-c3ccc(C(=O)NC4CC4)c(C)c3)c2n1)[C@H](C)O` [Example C119] was run?
Answer: < 100 nM

Question: How did the IC50 turn out when `CC(C)CNc1cc(-c2cccc3ncccc23)nc2c(-c3ccc(C(=O)NC4CC4)cc3)cnn12` [Example C155] was run?
Answer: > 500 nM

Question: Which IC50 does the source give for `Cc1cc(-c2cnn3c(NC[C@@H]4CCCO4)cc(NC4CCCC4)nc23)ccc1C(=O)NC1CC1` [Example C64] here?
Answer: < 100 nM

Question: How did the IC50 turn out when `Cc1cc(-c2cnn3c(NCCN4CCOCC4)cc(Nc4ccccc4)nc23)ccc1C(=O)NC1CC1` [Example C60] was run?
Answer: < 100 nM

same assay, conditions: Table 1; 16 μM ATP (asterisk); read-out: TTK IC50 Range

Question: `Cc1cc(-c2cnn3c(NCC4CCOCC4)nc(N(C)C)nc23)ccc1C(=O)NC1CC1` [Example A1, N-Cyclopropyl-4-(2-(dimethylamino)-4-(((tetrahydro-2H-pyran-4-yl)methyl)amino)pyrazolo[1,5-a][1,3,5]triazin-8-yl)-2-methylbenzamide] was tested. Which IC50 did it give?
Answer: 100 to 500 nM

Question: `O=C(NC1CC1)c1ccc(-c2cnn3c(NCCN4CCOCC4)nc(N4CCC(O)CC4)nc23)cc1` [Example A9, N-cyclopropyl-4-(2-(4-hydroxypiperidin-1-yl)-4-((2-morpholinoethyl)amino)pyrazolo[1,5-a][1,3,5]triazin-8-yl)benzamide] was tested. Which IC50 did it give?
Answer: > 500 nM

same assay, conditions: Table 2; 16 μM ATP (asterisk); read-out: TTK IC50 Range

Question: Which IC50 does the source give for `COCCNc1cc(Oc2cccnc2)nc2c(-c3ccc(C(=O)NC4CC4)cc3)cnn12` [Example B4, N-cyclopropyl-4-(7-((2-methoxyethyl)amino)-5-(pyridin-3-yloxy)pyrazolo[1,5-a]pyrimidin-3-yl)benzamide] here?
Answer: < 100 nM

Question: `Cc1cc(-c2cnn3c(NCC(C)(C)O)cc(NC4CCOCC4)nc23)ccc1C(=O)NC1CC1` [Example B32, N-cyclopropyl-4-(7-((2-hydroxy-2-methylpropyl)amino)-5-((tetrahydro-2H-pyran-4-yl)amino)pyrazolo[1,5-a]pyrimidin-3-yl)-2-methylbenzamide] was tested. Which IC50 did it give?
Answer: < 100 nM

Question: With `Cc1cc(-c2cnn3c(NCC(C)(C)O)cc(Oc4cccnc4)nc23)ccc1C(=O)NC1CC1` [Example B28, N-cyclopropyl-4-(7-((2-hydroxy-2-methylpropyl)amino)-5-(pyridin-3-yloxy)pyrazolo[1,5-a]pyrimidin-3-yl)-2-methylbenzamide] as the compound, how does the IC50 read?
Answer: < 100 nM

Question: How did the IC50 turn out when `Cc1cc(-c2cnn3c(NC[C@H]4CC[C@H](O)CC4)cc(NC4CCOCC4)nc23)ccc1C(=O)NC1CC1` [Example B33, N-cyclopropyl-4-(7-((((1r,4r)-4-hydroxycyclohexyl)-methyl)amino)-5-((tetrahydro-2H-pyran-4-yl)amino)pyrazolo[1,5-a]pyrimidin-3-yl)-2-methylbenzamide] was run?
Answer: < 100 nM
